Read-outs that look alike come from different tables or passages of the source.
Experiments:
HCVcc-1a/2a-Rluc = assay type: cell-based, hepatitis C virus; conditions: mean of 8 independent experiments
HCVcc-1b/2a = assay type: cell-based, hepatitis C virus
in vitro [1] = conditions: human
Method: (§1) In addition, compound-induced cytotoxicity in each cell line used for the infection assays was measured.

HCVcc-2a/2a-Rluc = assay type: cell-based
in vitro [2] = conditions: bovine
Method: as §1

in vitro [3] = conditions: dog
Method: as §1

HCVpp-1b = assay: Inhibitor time-of-addition / attachment vs post-attachment assay, Huh-H1 cells
Method: Huh-H1 cells were seeded at 5×10^3 cells/well in 96-well plates. The following day the plates were chilled to 4°C and the media was removed and replaced with HCVpp inoculum in a volume of 50 µl. Plates were incubated at 4°C for 1.5 hr on a rocking platform. The inoculum was removed and unbound virus was removed by 2 washes with 4°C media. Fresh media was added and the plates were shifted to a 37°C incubator. […] At 3 days post infection, firefly luciferase activity was quantified using the Steady-Glo Reagent (Promega) according to the manufacturer's instructions. Experiments were done in triplicate and the mean % inhibition was calculated relative to control infections lacking inhibitor.

[4] = assay type: cell-based; conditions: human, Huh-7.5 cells
VSVpp = assay: microbe, parasite or virus in culture; assay type: cell-based; conditions: Vesicular stomatitis virus, Huh-H1, read-out: EC50 VSVpp
HIV = assay: microbe, parasite or virus in culture; conditions: Human immunodeficiency virus 1, MT2, read-out: EC50 HIV
Method: (§2) BVDV cell protection assays were performed essentially as described [54] by infecting MDBK cells with 0.1 pfu/cell of BVDV strain NADL. Infected cells were incubated at 37°C for 3 days and virus-induced cytopathicity was measured using the Cell Titer-Glo reagent (Promega). HIV assays were performed as described [55] by infecting MT2 cells with 0.05 pfu/cell of the NL4-3 strain of HIV (NIH Research and Reference Reagent Program) containing the Renilla luciferase gene (NL-Rluc) in the Nef locus. Infected cells were incubated at 37°C for 5 days and virus replication was measured by reverse transcriptase assay using a scintillation proximity assay as described [55].

BVDV = assay: microbe, parasite or virus in culture; conditions: Bovine viral diarrhea virus isolates and strains, read-out: EC50 BVDV
Method: as §2

HCVcc-1a/2a = conditions: 0.5 µM EI-1 in agarose overlay
Method: An assay incorporating a semisolid medium was used to access cell-to-cell spread as described [57]. HCVcc-1a/c2a was added to 1.6×10^4 Huh-7.5 cells at 0.001 ffu/cell incubated at 37°C. […] Cells were incubated at 37°C for 2, 3 or 4 days at which time the agarose was removed and the infected cells were detected using indirect immunofluorescence for the HCV core protein as described above. The mean number of infected cells/ffu was determined from ≥100 foci for each data point.

HCV entry = assay type: cell-based, hepatitis C virus

For `C=C[C@@H]1C[C@]1(NC(=O)[C@@H]1C[C@@H](Oc2nccc3cc(OC)ccc23)CN1C(=O)[C@@H](NC(=O)OC(C)(C)C)C(C)(C)C)C(=O)NS(=O)(=O)C1CC1` [BMS-605339], the EC50 (HCVcc-1a/2a-Rluc) was 0.123 µM.
For `COC(=O)N[C@H](C(=O)N1CCC[C@H]1c1nc(-c2ccc(-c3ccc(-c4c[nH]c([C@@H]5CCCN5C(=O)[C@@H](NC(=O)OC)C(C)C)n4)cc3)cc2)c[nH]1)C(C)C` [BMS-790052, reference compound], the “virus release, inhibitor added 5 hours post infection (post entry; in words)” value (HCVcc-1b/2a) was “prevented virus release”.
With `CCCCCNc1nc(Nc2ccc([N+](=O)[O-])cc2)nc(OCC(F)(F)F)n1` [EI-1, N ^2-(4-nitrophenyl)-N ^4-pentyl-6-(2,2,2-trifluoroethoxy)-1,3,5-triazine-2,4-diamine] the CC50 (in vitro [1]) was > 50 µM, the “activity against genotype 2a/2a chimeric virus (in words)” value (HCVcc-2a/2a-Rluc) was “not active” and the CC50 (in vitro [2]) was > 50 µM. For the same molecule, the CC50 (in vitro [3]) was > 50 µM, the “effect on the attachment of HCVpp to HSPGs (inhibitor during 4°C step only; in words)” value (HCVpp-1b; 0.125 µM EI-1) was “little effect” and the “time of infection within which inhibition is exerted” value (HCVpp-1b; 0.125 µM EI-1 added at intervals after 37°C shift) was ≤ 3 h. The inhibition at 0.125 µM (HCVpp-1b; Hepatitis C virus, Huh-H1, read-out: inhibition when inhibitor present during the 37°C phase only (post-attachment)) was > 90%, the CC50 [4] was > 50 µM and the EC50 (VSVpp) was 33 µM. For the same molecule, the EC50 (HIV) was 23.4 µM, the “progeny virus release, inhibitor present during entry (in words)” value (HCVcc-1b/2a) was “dose-dependent reduction” and the “virus release, inhibitor added 5 hours post infection (post entry; in words)” value (HCVcc-1b/2a) was “did not affect the levels of virion particles or infectious virus produced”. The EC50 (BVDV) was > 50 µM and the “cell-to-cell transmission (in words)” value (HCVcc-1a/2a) was “abrogated”.
With `CO/C1=C\C(C)=C\[C@@H](C)[C@@H](O)[C@@H](C)C/C(C)=C/C=C/[C@H](OC)[C@@H]([C@@H](C)[C@@H](O)[C@H](C)[C@@]2(O)C[C@@H](O)[C@H](C)[C@@H](C(C)C)O2)OC1=O` [bafilomycin, bafilomycin A1, reference compound] the “time after the 37°C temperature shift at which sensitivity to the inhibitor was lost” value (HCVpp-1b; 10 nM bafilomycin A1) was ≥ 3 h and the “stage of entry at which the control inhibitor is effective (in words)” value (HCVpp-1b; heparin 200 µg/ml, anti-CD81 monoclonal antibody 2 µg/ml, bafilomycin A1 10 nM) was “only effective during the post-attachment stage”.
For `CCCCCCCCO[C@@H]1O[C@H](CO)[C@@H](O)[C@H](O)[C@H]1O` [β-OG, n-octyl-β-D-glucoside], the “inhibition of HCV entry (in words)” value (HCV entry) was “did not inhibit”.

Source: article PMC2936744 (PLoS Pathogens, 2010)
